This is an account of results in patent publication US9580437B2, “Triazolopyrimidine compounds and uses thereof” (Novartis AG, priority 2014, dated 2017).

One experiment concerns the target EED (1-441)-His protein (Homo sapiens (Human), UniProt O75530). The experiment in a line: EED-H3K27Me3 peptide competition binding assay by AlphaScreen. Particulars: read-out: (a) IC50 EED Alphascreen binding Qualified. An excerpt: EED-H3K27Me3 peptide competition binding assay by AlphaScreen (α-screen)
The target of experiment [1] is wild type PRC2 (wtPRC2) complex (Homo sapiens (Human), UniProt O75530). The experiment in a line: EED LC-MS assay. Type of experiment: biochemical. The following applies: read-out: (b) IC50 EED LC-MS Qualified. How it is done:
A 6 μL solution of 3 μM of the peptide substrate H3K27Me0 (histone H3[21-44]-biotin) in reaction buffer was added to initiate each reaction. […] ELISA (H3K27 Methylation) Assay

pIC50: −log10 of the molar value.

Sequence of EED (1-441)-His protein (O75530 whole entry): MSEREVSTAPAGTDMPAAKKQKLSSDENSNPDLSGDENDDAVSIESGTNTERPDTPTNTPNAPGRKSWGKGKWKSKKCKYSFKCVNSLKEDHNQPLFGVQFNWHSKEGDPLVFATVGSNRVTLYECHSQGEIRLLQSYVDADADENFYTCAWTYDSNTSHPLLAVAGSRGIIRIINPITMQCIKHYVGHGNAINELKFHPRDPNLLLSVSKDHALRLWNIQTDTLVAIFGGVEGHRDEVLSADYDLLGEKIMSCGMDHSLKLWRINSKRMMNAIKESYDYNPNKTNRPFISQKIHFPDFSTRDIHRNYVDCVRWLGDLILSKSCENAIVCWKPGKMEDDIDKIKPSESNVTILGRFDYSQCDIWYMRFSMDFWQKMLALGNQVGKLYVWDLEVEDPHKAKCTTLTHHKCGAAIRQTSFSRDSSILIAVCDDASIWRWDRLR
Sequence of wild type PRC2 (wtPRC2) complex (O75530 whole entry): as above
Sequence of wild type PRC2 (wtPRC2) complex (Q15910 whole entry partner): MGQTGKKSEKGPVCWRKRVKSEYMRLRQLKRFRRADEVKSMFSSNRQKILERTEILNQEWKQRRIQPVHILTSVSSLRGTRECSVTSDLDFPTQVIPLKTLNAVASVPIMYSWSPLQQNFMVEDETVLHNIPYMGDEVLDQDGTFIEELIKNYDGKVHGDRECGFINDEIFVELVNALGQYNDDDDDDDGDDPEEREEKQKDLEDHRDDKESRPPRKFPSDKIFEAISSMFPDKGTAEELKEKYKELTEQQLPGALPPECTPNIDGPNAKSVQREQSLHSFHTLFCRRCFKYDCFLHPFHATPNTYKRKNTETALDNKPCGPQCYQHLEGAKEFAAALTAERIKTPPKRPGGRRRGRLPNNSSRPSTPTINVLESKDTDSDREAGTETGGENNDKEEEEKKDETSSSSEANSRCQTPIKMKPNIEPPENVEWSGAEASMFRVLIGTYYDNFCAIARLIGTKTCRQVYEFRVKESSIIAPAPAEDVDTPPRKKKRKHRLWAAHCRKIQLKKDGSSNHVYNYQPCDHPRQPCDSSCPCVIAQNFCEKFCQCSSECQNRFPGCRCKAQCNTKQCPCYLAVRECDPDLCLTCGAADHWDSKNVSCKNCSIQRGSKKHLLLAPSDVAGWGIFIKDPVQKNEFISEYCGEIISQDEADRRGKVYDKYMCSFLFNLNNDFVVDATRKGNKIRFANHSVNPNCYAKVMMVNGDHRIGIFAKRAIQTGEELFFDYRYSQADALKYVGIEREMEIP
Sequence of wild type PRC2 (wtPRC2) complex (Q15022 whole entry partner): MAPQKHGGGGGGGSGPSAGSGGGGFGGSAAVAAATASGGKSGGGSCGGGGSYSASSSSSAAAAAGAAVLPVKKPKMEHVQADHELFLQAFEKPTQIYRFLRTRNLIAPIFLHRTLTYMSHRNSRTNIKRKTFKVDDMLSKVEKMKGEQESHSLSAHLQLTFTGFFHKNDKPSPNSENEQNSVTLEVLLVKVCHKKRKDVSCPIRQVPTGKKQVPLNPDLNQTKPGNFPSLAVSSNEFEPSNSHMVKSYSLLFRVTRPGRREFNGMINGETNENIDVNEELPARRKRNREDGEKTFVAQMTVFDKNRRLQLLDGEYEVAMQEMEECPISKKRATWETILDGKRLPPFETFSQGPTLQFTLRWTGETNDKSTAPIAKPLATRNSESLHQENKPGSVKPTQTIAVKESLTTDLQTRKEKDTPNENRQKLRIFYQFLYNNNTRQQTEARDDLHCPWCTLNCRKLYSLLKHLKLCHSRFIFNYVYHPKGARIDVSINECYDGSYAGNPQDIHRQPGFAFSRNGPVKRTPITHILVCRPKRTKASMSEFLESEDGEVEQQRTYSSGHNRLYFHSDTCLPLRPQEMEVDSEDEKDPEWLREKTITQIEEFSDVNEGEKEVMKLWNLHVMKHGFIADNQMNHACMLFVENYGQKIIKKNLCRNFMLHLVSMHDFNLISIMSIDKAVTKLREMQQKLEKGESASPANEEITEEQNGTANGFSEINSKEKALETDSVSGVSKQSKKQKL

As to `Fc1ccc2c(c1CNc1ncc(-c3cnccc3C(F)(F)F)c3nncn13)CCO2` [Example 136, N-((5-fluoro-2,3-dihydrobenzofuran-4-yl)methyl)-8-(4-(trifluoromethyl)pyridin-3-yl)-[1,2,4]triazolo[4,3-c]pyrimidin-5-amine], the negative logarithm of the IC50 (pIC50) on EED (1-441)-His protein was 7.80; in experiment [1] it was 7.38.
For `COCc1cc(-c2cnc(NCc3cccc4c3CCO4)n3cnnc23)cnc1C` [Example 137, N-((2,3-dihydrobenzofuran-4-yl)methyl)-8-(5-(methoxymethyl)-6-methylpyridin-3-yl)-[1,2,4]triazolo[4,3-c]pyrimidin-5-amine], in that order: 7.66 and 7.53.
For `COc1cc(Cl)c(-c2cnc(NCc3c(F)ccc4c3CCO4)n3cnnc23)cn1` [Example 138, 8-(4-chloro-6-methoxypyridin-3-yl)-N-((5-fluoro-2,3-dihydrobenzofuran-4-yl)methyl)-[1,2,4]triazolo[4,3-c]pyrimidin-5-amine], in that order: 8.72 and 8.08.
For `Cc1nc(S(C)(=O)=O)ccc1-c1cnc(NCc2c(F)ccc3c2CCO3)n2cnnc12` [Example 139, N-((5-fluoro-2,3-dihydrobenzofuran-4-yl)methyl)-8-(2-methyl-6-(methylsulfonyl)pyridin-3-yl)-[1,2,4]triazolo[4,3-c]pyrimidin-5-amine], in that order: 8.77 and 8.22.
With `CN(C)C(=O)c1ccc(-c2cnc(NCc3c(F)ccc4c3CCO4)n3cnnc23)cn1` [Example 140, 5-(5-(((5-fluoro-2,3-dihydrobenzofuran-4-yl)methyl)amino)-[1,2,4]triazolo[4,3-c]pyrimidin-8-yl)-N,N-dimethylpicolinamide], the pIC50 is 7.90 at EED (1-441)-His protein and 7.26 in experiment [1].
For `COc1ncccc1-c1cnc(NCc2c(F)ccc3c2CCO3)n2cnnc12` [Example 141, N-((5-fluoro-2,3-dihydrobenzofuran-4-yl)methyl)-8-(2-methoxypyridin-3-yl)-[1,2,4]triazolo[4,3-c]pyrimidin-5-amine] the same measures were 7.77 and 7.38.
For `COc1ccc(-c2cnc(NCc3c(F)ccc4c3CCO4)n3cnnc23)cn1` [Example 142, N-((5-fluoro-2,3-dihydrobenzofuran-4-yl)methyl)-8-(6-methoxypyridin-3-yl)-[1,2,4]triazolo[4,3-c]pyrimidin-5-amine] the same measures were 8.62 and 8.29.
For the molecule `CCn1nccc1-c1cnc(NCc2c(F)ccc3c2CCO3)n2cnnc12` [Example 143, 8-(1-ethyl-1H-pyrazol-5-yl)-N-((5-fluoro-2,3-dihydrobenzofuran-4-yl)methyl)-[1,2,4]triazolo[4,3-c]pyrimidin-5-amine], the negative logarithm of the IC50 (pIC50) on EED (1-441)-His protein is 7.74; in experiment [1], 7.50.
Take `CC(C)n1nccc1-c1cnc(NCc2c(F)ccc3c2CCO3)n2cnnc12` [Example 144, N-((5-fluoro-2,3-dihydrobenzofuran-4-yl)methyl)-8-(1-isopropyl-1H-pyrazol-5-yl)-[1,2,4]triazolo[4,3-c]pyrimidin-5-amine]: the figures for the pIC50 (at EED (1-441)-His protein; in experiment [1]) were 8.20 and 7.75, respectively.
Turning to `COc1cc(-c2cnc(NCc3c(F)ccc4c3CCO4)n3cnnc23)ccn1` [Example 145, N-((5-fluoro-2,3-dihydrobenzofuran-4-yl)methyl)-8-(2-methoxypyridin-4-yl)-[1,2,4]triazolo[4,3-c]pyrimidin-5-amine], the pIC50 was 8.62 on EED (1-441)-His protein and 7.93 in experiment [1].
Regarding `Fc1ccc2c(c1CNc1ncc(-c3ccc(Cl)cc3Cl)c3nncn13)CCO2` [Example 146, 8-(2,4-dichlorophenyl)-N-((5-fluoro-2,3-dihydrobenzofuran-4-yl)methyl)-[1,2,4]triazolo[4,3-c]pyrimidin-5-amine], the values for the negative-log IC50 (pIC50) (on EED (1-441)-His protein; in experiment [1]) were 7.64 and 7.42, respectively.
For `Cn1cc(-c2cnc(NCc3c(F)ccc4c3CCO4)n3cnnc23)cn1` [Example 147, N-((5-fluoro-2,3-dihydrobenzofuran-4-yl)methyl)-8-(1-methyl-1H-pyrazol-4-yl)-[1,2,4]triazolo[4,3-c]pyrimidin-5-amine], in that order: 8.44 and 7.80.
For `CC(C)n1cc(-c2cnc(NCc3c(F)ccc4c3CCO4)n3cnnc23)c(C(F)(F)F)n1` [Example 148, N-((5-fluoro-2,3-dihydrobenzofuran-4-yl)methyl)-8-(1-isopropyl-3-(trifluoromethyl)-1H-pyrazol-4-yl)-[1,2,4]triazolo[4,3-c]pyrimidin-5-amine] the same measures were 8.28 and 7.74.
For `c1cc(CNc2ncc(-c3cnn(C4CC4)c3)c3nncn23)c2c(c1)OCC2` [Example 149, 8-(1-cyclopropyl-1H-pyrazol-4-yl)-N-((2,3-dihydrobenzofuran-4-yl)methyl)-[1,2,4]triazolo[4,3-c]pyrimidin-5-amine] the same measures were 7.77 and 7.47.
As for `Fc1ccc2c(c1CNc1ncc(-c3cnn(C4CC4)c3)c3nncn13)CCO2` [Example 150, 8-(1-cyclopropyl-1H-pyrazol-4-yl)-N-((5-fluoro-2,3-dihydrobenzofuran-4-yl)methyl)-[1,2,4]triazolo[4,3-c]pyrimidin-5-amine], the values for the pIC50 (on EED (1-441)-His protein; in experiment [1]) were 8.35 and 8.15, respectively.
For `Cc1nn(C(C)C)c(C)c1-c1cnc(NCc2c(F)ccc3c2CCO3)n2cnnc12` [Example 151, N-((5-fluoro-2,3-dihydrobenzofuran-4-yl)methyl)-8-(1-isopropyl-3,5-dimethyl-1H-pyrazol-4-yl)-[1,2,4]triazolo[4,3-c]pyrimidin-5-amine] the same measures were 7.88 and 7.67.
In the case of `Cn1nccc1-c1cnc(NCc2cccc3c2CCO3)n2cnnc12` [Example 152, N-((2,3-dihydrobenzofuran-4-yl)methyl)-8-(1-methyl-1H-pyrazol-5-yl)-[1,2,4]triazolo[4,3-c]pyrimidin-5-amine], the pIC50 at EED (1-441)-His protein is 8.26; in experiment [1], 8.16.
For `Cc1nn(C(C)C)c(C)c1-c1cnc(NCc2cccc3c2CCO3)n2cnnc12` [Example 153, N-((2,3-dihydrobenzofuran-4-yl)methyl)-8-(1-isopropyl-3,5-dimethyl-1H-pyrazol-4-yl)-[1,2,4]triazolo[4,3-c]pyrimidin-5-amine] the same measures were 8.11 and 7.83.
For `FC(F)c1ccc(-c2cnc(NCc3cccc4c3CCO4)n3cnnc23)cn1` [Example 154, 8-(6-(difluoromethyl)pyridin-3-yl)-N-((2,3-dihydrobenzofuran-4-yl)methyl)-[1,2,4]triazolo[4,3-c]pyrimidin-5-amine], in that order: 7.70 and 7.43.
For `COc1ccc(-c2cnc(NCc3c(F)ccc4c3CCO4)n3cnnc23)c(C)n1` [Example 155, N-((5-fluoro-2,3-dihydrobenzofuran-4-yl)methyl)-8-(6-methoxy-2-methylpyridin-3-yl)-[1,2,4]triazolo[4,3-c]pyrimidin-5-amine] the same measures were 7.77 and 7.34.
Consider `Cc1nc(N)ccc1-c1cnc(NCc2c(F)ccc3c2CCO3)n2cnnc12` [Example 156, 8-(6-amino-2-methylpyridin-3-yl)-N-((5-fluoro-2,3-dihydrobenzofuran-4-yl)methyl)-[1,2,4]triazolo[4,3-c]pyrimidin-5-amine], for which the pIC50 at EED (1-441)-His protein is 8.40; in experiment [1] it was 7.76.
For `Fc1ccc(-c2cnc(NCc3c(F)ccc4c3CCO4)n3cnnc23)c(Cl)c1` [Example 157, 8-(2-chloro-4-fluorophenyl)-N-((5-fluoro-2,3-dihydrobenzofuran-4-yl)methyl)-[1,2,4]triazolo[4,3-c]pyrimidin-5-amine], in that order: 7.65 and 7.33.
For `Cc1nn(CCO)c(C)c1-c1cnc(NCc2c(F)ccc3c2CCO3)n2cnnc12` [Example 158, 2-(4-(5-(((5-fluoro-2,3-dihydrobenzofuran-4-yl)methyl)amino)-[1,2,4]triazolo[4,3-c]pyrimidin-8-yl)-3,5-dimethyl-1H-pyrazol-1-yl)ethanol], in that order: 8.29 and 8.02.
For `COCCn1nc(C)c(-c2cnc(NCc3c(F)ccc4c3CCO4)n3cnnc23)c1C` [Example 159, N-((5-fluoro-2,3-dihydrobenzofuran-4-yl)methyl)-8-(1-(2-methoxyethyl)-3,5-dimethyl-1H-pyrazol-4-yl)-[1,2,4]triazolo[4,3-c]pyrimidin-5-amine], in that order: 8.30 and 7.99.
Take `Fc1ccc2c(c1CNc1ncc(-c3ccc(C(F)(F)F)nc3)c3nncn13)CCO2` [Example 160, N-((5-fluoro-2,3-dihydrobenzofuran-4-yl)methyl)-8-(6-(trifluoromethyl)pyridin-3-yl)-[1,2,4]triazolo[4,3-c]pyrimidin-5-amine]: the pIC50 was 8.23 at EED (1-441)-His protein and 7.95 in experiment [1].
For `COc1cc(F)c(-c2cnc(NCc3c(F)ccc4c3CCO4)n3cnnc23)cn1` [Example 161, N-((5-fluoro-2,3-dihydrobenzofuran-4-yl)methyl)-8-(4-fluoro-6-methoxypyridin-3-yl)-[1,2,4]triazolo[4,3-c]pyrimidin-5-amine] the same measures were 8.44 and 8.01.
Turning to `Fc1ccc2c(c1CNc1ncc(-c3ccncc3Cl)c3nncn13)CCO2` [Example 162, 8-(3-chloropyridin-4-yl)-N-((5-fluoro-2,3-dihydrobenzofuran-4-yl)methyl)-[1,2,4]triazolo[4,3-c]pyrimidin-5-amine], the pIC50 at EED (1-441)-His protein was 8.24; in experiment [1], 7.68.
For `Cc1cnccc1-c1cnc(NCc2c(F)ccc3c2CCO3)n2cnnc12` [Example 163, N-((5-fluoro-2,3-dihydrobenzofuran-4-yl)methyl)-8-(3-methylpyridin-4-yl)-[1,2,4]triazolo[4,3-c]pyrimidin-5-amine], in that order: 8.39 and 7.96.
